Results reported in PubChem BioAssay AID493245 (The Scripps Research Institute Molecular Screening Center, 2011).
The source made the active and inactive calls. No rule for the calls is given here.

Tested on: 3C-like protease (Infectious bronchitis virus)
Assay: blockers of SARS 3CLpro activity – biochemical, fluorescence, set 3, late-stage follow-up (AID 493245)
Details: recombinant 3CLpro, fluorogenic substrate cleavage; at 100 µM; stronger effect = higher value

SMILES	inhibition
CC(C)(C)NC(=O)C(c1cccnc1)N(C(=O)c1ccco1)C1CC2CCC1C2 (stereo unspecified)	5.71% (inactive)
CC(C)C(=O)Nc1ccc(N(C(=O)Cn2nnc3ccccc32)C(C(=O)NCc2ccccc2)c2cccc(F)c2)cc1 (stereo unspecified)	73.5%
CC(C)(C)NC(=O)C(c1cccnc1)N(C(=O)c1ccco1)C1CCCCC1 (stereo unspecified)	4.49% (inactive)
O=C(Nc1ccc(N(C(=O)Cn2nnc3ccccc32)C(C(=O)NCc2ccccc2)c2cccc(F)c2)cc1)C1CCC1 (stereo unspecified)	62.5%
O=C(Nc1ccc(N(C(=O)Cn2nnc3ccccc32)C(C(=O)NCc2ccccc2)c2cccc(F)c2)cc1)C1CC1 (stereo unspecified)	68.8%
CC(C)(C)NC(=O)C(c1cccnc1)N(C(=O)c1ccco1)C12CC3CC(CC(C3)C1)C2 (stereo unspecified)	1.27% (inactive)
